Measurements published in ChEMBL document CHEMBL5380870, “Halo Library, a Tool for Rapid Identification of Ligand Binding Sites on Proteins Using Crystallographic Fragment Screening” (J Med Chem, 2023).

Assays:
[1] = test system: Human immunodeficiency virus type 1 reverse transcriptase (Human immunodeficiency virus 1), Q72547 [UNDEFINED MUTATION]; details: time 140.0 min, at 5 mM
[2] = molecular target: Human immunodeficiency virus type 1 reverse transcriptase (Human immunodeficiency virus 1, UniProt Q72547); assay: Inhibition of HIV-1 reverse transcriptase RT52A mutant using ABTS as substrate preincubated with compound for 1 hr followed by template-primer addition for 1 hr and measured 20 mins after substrate addition by absorbance based Roche colorimetric assay

| SMILES | inhibition [1] [%] | IC50 [2] [µM] |
| --- | --- | --- |
| Oc1ccc(C(F)(F)F)cn1 | 35 | – |
| Cc1c(CO)cnn1-c1ccc(F)cc1 | 55 | – |
| Nc1ccncc1Br | 99 | 2100 |
| O=c1[nH]cnc2cccc(F)c12 | 55 | – |
| N#Cc1c(N)cccc1F | 75 | – |
| Ic1cn[nH]c1 | 24 | – |
| NCCc1c(F)cccc1Cl | 99 | 2100 |
| CNc1ccc(C(F)(F)F)cc1N | 35 | – |
| NCc1cccc(Br)c1 | 96 | – |
| O=C(O)c1cc2cc(F)ccc2[nH]1 [5-FLUOROINDOLE-2-CARBOXYLIC ACID] | 99 | 2900 |
| Brc1cn[nH]c1 | 22 | – |
